{"source": "patent US8202910B2", "about": "(Sequella, Inc., priority 2006, dated 2012)", "key": {"[1]": {"system": "opiate receptor (non-selective opiate)", "assay": "CEREP receptor binding, opiate", "details": "tested at 10 μM", "excerpt": "In vitro testing for safety pharmacology and early ADMET (Absorption, Distribution, Metabolism, Excretion, Toxicity) studies of compound 109 were contracted out to CEREP (15318 NE 95th Street, Redmond, Wash., 98052, USA www.cerep.com) under a service agreement and included evaluation of inhibitory binding to a panel of 27 standard receptors and three transporters (See FIG. 60 (Table 31) and FIG. 61 (Table 32)) which included: adenosine receptors (A1 and A2A), adrenergic receptors (alpha 1, alpha 2, beta 1), angiotensin II receptor (AT1), benzodiazapene receptor (BZD), bradykinin receptor (B2), cholecystokinin receptor (CCK1), dopamine receptors (D1, D2S), endothelin receptor (ETA), GABA receptor (GABA), glutamate receptor (NMDA), histamine receptor (H1 central), melanocortin receptor (MC4), muscarinic receptor (M, non-selective), neurokinin receptor (NK1), neuropeptide Y receptor (Y), nicotinic receptor (neuronal, alpha-BGTX-insensitive), opiate receptor (non-selective opiate), orphanin receptor (ORL1), phencyclidine receptor (PCP), serotonin receptor (5-HT), sigma receptor (sigma non-selective), steroid receptor (glucocorticoid receptor, GR), and NE, DA, and 5-HT transporters.\nThe specific ligand binding to the receptors is defined as the difference between the total binding and the nonspecific binding determined in the presence of an excess of unlabelled ligand."}, "M. bovis BCG": {"system": "M. bovis BCG", "assay": "microbe, parasite or virus in culture", "format": "cell-based", "details": "Mycobacterium tuberculosis variant bovis BCG"}, "[2]": {"assay": "Maximum tolerated dose, one-time gavage dose in mice", "format": "in vivo", "procedure": "[…] Each dose of each compound consisted of one group of 3 mice. Monitoring of the mice was done twice a day for the duration of the experiment. […] The MTD (mg/kg) is the highest dose that results in no lethality/tissue abnormality.\n• 1. […] The compounds are dissolved in the appropriate concentration of ethanol in distilled water and administered in a volume of 0.2 ml per mouse. • 2. Observation of mice: Mice will be observed 4 and 6 hours post administration, then twice daily for one week. Survival and body weight of mice will be closely monitored throughout the study. • 3. […] Critical organs will be aseptically removed and observed; tissues from the liver, heart, and kidneys are extracted and placed into 10% formalin solution. These fixed tissues are sectioned and examined for abnormalities resulting from drug toxicity."}, "[3]": {"assay": "Metabolism by human liver microsomes", "format": "in vitro ADME", "details": "after 40 min incubation", "excerpt": "Two of the groups contained oxidized metabolites. […] Based on the finding that SQ109 was metabolized rapidly by CYP, it is possible that its antimycobacterial activity may come from one of its metabolites. It is conceivable that SQ109 is a prodrug and requires activation by mycobacterial CYP. We speculate that when SQ109 is used in combination with rifampicin, the latter induces certain CYP activity within the Mycobacteria. Elevated CYP activity activates the SQ109 prodrug more efficiently, resulting in an apparent synergistic activity of the two drugs."}, "Streptococcus pneumoniae": {"system": "Streptococcus pneumoniae", "assay": "Spectrum of activity MIC (NCCLS)", "format": "cell-based", "procedure": "(§1) Compound 109 was tested against a representative panel of commonly encountered clinical microorganisms comprising opportunistic pathogens, target pathogens and normal human flora. The spectrum of activity of compound 109 was evaluated by performing antimicrobial susceptibility testing against a collection of aerobic and anaerobic bacteria, fungi, and mycobacteria. MICs for all organisms were established using the appropriate NCCLS (National Committee for Clinical Laboratory Standards) recommended standard methods and quality control strains."}, "Haemophilus influenzae": {"system": "Haemophilus influenzae", "assay": "Spectrum of activity MIC (NCCLS)", "format": "cell-based", "details": "three isolates", "procedure": "as §1"}, "Helicobacter pylori": {"system": "Helicobacter pylori", "assay": "Spectrum of activity MIC (NCCLS)", "format": "cell-based", "details": "all three strains tested", "procedure": "as §1"}, "enterococci": {"system": "enterococci", "assay": "Spectrum of activity MIC (NCCLS)", "format": "cell-based", "details": "all species of enterococci tested", "procedure": "as §1"}, "Staphylococci": {"system": "Staphylococci", "assay": "Spectrum of activity MIC (NCCLS)", "format": "cell-based", "details": "all Staphylococci tested", "procedure": "as §1"}, "in vivo": {"assay": "in vivo", "parameters": "species or system mice", "details": "mouse", "procedure": "Initially, analytical methods for determination of the compounds had been developed that allowed to carry out all the PK experiments, sec FIG. 29. Here is a brief description of the experiment: (1) plasma spiked with tested compounds and 10 uL of Terfenadine or plasma samples (200 uL) added; (2) ACN (2 mL) added to precipitate protein and spin at 2,500 rpm; (3) evaporate supernatant to dryness; (4) add 200 uL of the diluting solvent: methanol (with 0.1% of trifluoroacetic acid): ammonium acetate (80/20); (5) vortex, spin, and use supernatant; (6) run LC/MS/MS on Sciex API 3000.\nPilot PK study of the compounds 37, 59, and 109 in mice was conducted using a cassette dosing: all the three analogs were formulated together in saline at 1.5 mg/mL, and administered to mice simultaneously orally at 25 mg/kg, peritoneally at 6 mg/kg, and intravenously. […] Obtained data are presented on FIGS. 30, 31, and 32 (tested compounds were studied under the NCI′ indexation NSC) and summarized in Table 19."}}, "note": "“And” between values parts separate entries of the source, which are not always exact repeats. Equal entries are not always repeated.", "data": [{"smiles": "CC(C)=CCC/C(C)=C/CNCCNC1C2CC3CC(C2)CC1C3", "note": "(centres unmarked) [Compound 109, N-Geranyl-N′-(2-adamanthyl)ethane-1,2-diamine]", "values": [{"measurement": "inhibition of control specific binding", "setting": "[1]", "result": 58, "unit": "%"}, {"measurement": "MIC", "setting": "M. bovis BCG", "result": 0.5, "unit": "µg/mL"}, {"measurement": "Mice", "setting": "[2]; 109 as HCl salt at 800 mg/kg, day 1", "result": 3}, {"measurement": "Mice", "setting": "[2]; 109 as HCl salt at 800 mg/kg, day 2", "result": "2/1"}, {"measurement": "Mice", "setting": "[2]; 109 as HCl salt at 800 mg/kg, day 3", "result": "1/1"}, {"measurement": "Mice", "setting": "[2]; 109 as HCl salt at 800 mg/kg, day 4", "result": 1}, {"measurement": "Mice", "setting": "[2]; 109 as HCl salt at 800 mg/kg, day 5", "result": 1}, {"measurement": "Mice", "setting": "[2]; 109 as HCl salt at 800 mg/kg, day 6", "result": 1}, {"measurement": "Mice", "setting": "[2]; 109 as HCl salt at 800 mg/kg, day 7", "result": 1}, {"measurement": "Day of death", "setting": "[2]; 109 as HCl salt at 800 mg/kg, 800 mg/kg", "result": "2 and 3"}, {"measurement": "Mice", "setting": "[2]; 109 as TFA salt at 800 mg/kg, day 1", "result": 1}, {"measurement": "Mice", "setting": "[2]; 109 as TFA salt at 800 mg/kg, day 2", "result": 1}, {"measurement": "Mice", "setting": "[2]; 109 as TFA salt at 800 mg/kg, day 3", "result": 1}, {"measurement": "Mice", "setting": "[2]; 109 as TFA salt at 800 mg/kg, day 4", "result": 1}, {"measurement": "Mice", "setting": "[2]; 109 as TFA salt at 800 mg/kg, day 5", "result": 1}, {"measurement": "Mice", "setting": "[2]; 109 as TFA salt at 800 mg/kg, day 6", "result": 1}, {"measurement": "Mice", "setting": "[2]; 109 as TFA salt at 800 mg/kg, day 7", "result": 1}, {"measurement": "Mice", "setting": "[2]; 109 at 100 mg/kg, day 1", "result": 3}, {"measurement": "Mice", "setting": "[2]; 109 at 100 mg/kg, day 2", "result": 3}, {"measurement": "Mice", "setting": "[2]; 109 at 100 mg/kg, day 3", "result": 3}, {"measurement": "Mice", "setting": "[2]; 109 at 100 mg/kg, day 4", "result": 3}, {"measurement": "Mice", "setting": "[2]; 109 at 100 mg/kg, day 6", "result": 3}, {"measurement": "Mice", "setting": "[2]; 109 at 100 mg/kg, day 7", "result": 3}, {"measurement": "Mice", "setting": "[2]; 109 at 300 mg/kg, day 1", "result": 3}, {"measurement": "Mice", "setting": "[2]; 109 at 300 mg/kg, day 2", "result": 3}, {"measurement": "Mice", "setting": "[2]; 109 at 300 mg/kg, day 3", "result": 3}, {"measurement": "Mice", "setting": "[2]; 109 at 300 mg/kg, day 4", "result": 3}, {"measurement": "Mice", "setting": "[2]; 109 at 300 mg/kg, day 6", "result": 3}, {"measurement": "Mice", "setting": "[2]; 109 at 300 mg/kg, day 7", "result": 3}, {"measurement": "Mice", "setting": "[2]; 109 at 600 mg/kg, day 1", "result": 3}, {"measurement": "Mice", "setting": "[2]; 109 at 600 mg/kg, day 2", "result": 3}, {"measurement": "Mice", "setting": "[2]; 109 at 600 mg/kg, day 3", "result": 3}, {"measurement": "Mice", "setting": "[2]; 109 at 600 mg/kg, day 4", "result": 3}, {"measurement": "Mice", "setting": "[2]; 109 at 600 mg/kg, day 6", "result": 3}, {"measurement": "Mice", "setting": "[2]; 109 at 600 mg/kg, day 7", "result": 3}, {"measurement": "Mice", "setting": "[2]; 109 at 1000 mg/kg, day 1", "result": 3}, {"measurement": "Mice", "setting": "[2]; 109 at 1000 mg/kg, day 2", "result": 2}, {"measurement": "Mice", "setting": "[2]; 109 at 1000 mg/kg, day 3", "result": 2}, {"measurement": "Mice", "setting": "[2]; 109 at 1000 mg/kg, day 4", "result": 1}, {"measurement": "Mice", "setting": "[2]; 109 at 1000 mg/kg, day 6", "result": 0}, {"measurement": "MTD at 1 week", "setting": "[2]; female, C57BL/6, mouse, in vivo, po, one-time dose by gavage", "result": 600, "unit": "mg/kg"}, {"measurement": "changes in organs", "setting": "[2]; mice surviving one week", "result": "No visible changes in organs"}, {"measurement": "fatal dose", "setting": "[2]; one-time dose, two of 3 mice died within 3 days", "result": 800, "unit": "mg/kg"}, {"measurement": "SQ109 remaining", "setting": "[3]", "result": 8, "unit": "%"}, {"measurement": "MIC", "setting": "Streptococcus pneumoniae", "result": "4 to 8", "unit": "µg/mL"}, {"measurement": "MIC", "setting": "Haemophilus influenzae", "result": "1 to 32", "unit": "µg/mL"}, {"measurement": "MIC", "setting": "Helicobacter pylori", "result": 4, "unit": "µg/mL"}, {"measurement": "MIC", "setting": "enterococci", "result": "16 to 64", "unit": "µg/mL"}, {"measurement": "MIC", "setting": "Staphylococci", "result": "16 to 32", "unit": "µg/mL"}, {"measurement": "AUC", "setting": "in vivo; ip, 6 mg/kg", "result": 1100, "unit": "ng·h/mL"}, {"measurement": "Cmax", "setting": "in vivo; ip, 6 mg/kg", "result": 935, "unit": "ng/mL"}, {"measurement": "Urine excretion (%)", "setting": "in vivo; ip, 6 mg/kg", "result": "<0.01", "unit": "%"}, {"measurement": "bioavailability", "setting": "in vivo; ip, 6 mg/kg", "result": 55, "unit": "%"}, {"measurement": "half-life", "setting": "in vivo; ip, 6 mg/kg", "result": 4.4, "unit": "h"}, {"measurement": "AUC", "setting": "in vivo; iv, 3 mg/kg", "result": 1010, "unit": "ng·h/mL"}, {"measurement": "Cmax", "setting": "in vivo; iv, 3 mg/kg", "result": 1190, "unit": "ng/mL"}, {"measurement": "Urine excretion (%)", "setting": "in vivo; iv, 3 mg/kg", "result": ".92%"}, {"measurement": "clearance", "setting": "in vivo; iv, 3 mg/kg", "result": 54, "unit": "mL/min/kg"}, {"measurement": "half-life", "setting": "in vivo; iv, 3 mg/kg", "result": 5.5, "unit": "h"}, {"measurement": "AUC", "setting": "in vivo; po, 25 mg/kg", "result": 655, "unit": "ng·h/mL"}, {"measurement": "Cmax", "setting": "in vivo; po, 25 mg/kg", "result": 227, "unit": "ng/mL"}, {"measurement": "bioavailability", "setting": "in vivo; po, 25 mg/kg", "result": 2.7, "unit": "%"}]}]}
